# Laboratory results published in patent US11034654B2, “2,3-dihydroisoindole-1-carboxamides useful as ROR-gamma modulators” (AstraZeneca AB, priority 2017, dated 2021).
# Experiments:
# [1] = biological target: T1, RORγ ligand binding domain (Homo sapiens, UniProt P51449); assay: RORγ co-factor recruitment assay (FRET); type: biochemical; set-up: made in house; host or cells: E. coli BL21DE3 Star; details: inhibition of recruitment of SRC-1 peptide (NCOA1_677-700) to hRORγ LBD, HTRF read-out
# Excerpt: RORγ Co-Factor Recruitment Assay A high throughput coactivator binding assay for the identification of inverse agonists of the recruitment of peptide SRC-1 (NCOA1_677-_700) to the RORγ ligand binding domain was established. The ligand binding domain (LBD) of human RORγ was expressed in E. coli (BL21DE3 Star) as a fusion protein: N-6×HN-MBP-Avi-TCS-hRORγLBD(P260-K518) subcloned into pET24a(+). The LBD (P260-K518) is underlined in the protein sequence: The assay was run in black 384 well plates (Greiner cat no: 784900). Various concentrations of test ligands in 0.1 microlitres DMSO were dispensed to assay plates using an Echo acoustic dispenser. Two pre-mixes were prepared and incubated for 1 h at room temp in the dark. Pre-mix 1 comprised 100 nM Protein (Biotinylated HN-Avi-MBP-TCS-hRORγ (258-518)) and 60 nM Streptavidin APC in assay buffer, 50 mM MOPS pH7.4, 50 mM KF, 0.003% (w/v) CHAPS, 10 mM DTT and 0.01% (w/v) BSA and pre-mix 2 comprised 160 nM biotinylated SRC-1 peptide (NCOA1-677-700) and 20 nM Europium-W8044 labelled Streptavidin in assay buffer. Five microlitres of pre-mix 2 was dispensed to assay plates containing 0.1 microlitres of test compound and was incubated for 15 min prior to adding five microlitres of pre-mix 1. Plates were incubated at rt for 1 hour in the dark, prior to reading in a Pherastar multi-mode plate reader using HTRF filter set (ex 320, em 612 and 665). The FRET signal at 665 nm was divided by the signal at 612 nm and multiplied by 10,000 to generate a signal ratio value for each well. The raw data was transformed to % effect using the equation: Compound % effect=100*[(X−min)/(max−min)], where X represents the normalized value for the compound based on the Min (vehicle) and Max (reference compound) inhibition control. The concentration of test ligand that inhibited the activity by 50% (i.e., the IC50) was calculated by plotting the % effect versus test ligand concentration and fitting the data using the Genedata Screener Smart fit algorithm.
# [2] = biological target: T1, RORγ ligand binding domain; assay: RORγ radioligand competition binding assay (SPA); details: competition with tritiated 2-(4-(ethylsulfonyl)phenyl)-N-(4-(2-(methoxymethyl)phenyl)thiophen-2-yl)acetamide (25 nM), hRORγ LBD
# Excerpt: RORγ Radioligand Competition Binding Assay The aim of this assay is to identify compounds which bind to the RORγ ligand binding domain, by competing with tritiated 2-(4-(ethylsulfonyl)phenyl)-N-(4-(2-(methoxymethyl)phenyl)thiophen-2-yl)acetamide. Human RORγ (Ligand Binding Domain (RORγ LBD) was expressed in E. coli (BL21DE3 Star) as a fusion protein: N-6×HN-Avi-GST-TCS-hRORγ LBD (S258-K518) subcloned into pET24a(+). The LBD (258-518) is underlined in the protein sequence: The scintillation proximity assay (SPA) was run in white polystyrene flat-bottom 384-well plates (Greiner, cat. No. 781075). Assays were carried out in 40 μl reaction volumes. Various concentrations of test ligands in 0.4 microlitres of DMSO were added to assay plates using an acoustic liquid dispenser. 4 nM purified N-(HN)6-GST-TCS-hRORγ (258-518) was mixed with 40 micrograms Yttrium oxide (YOx) glutathione SPA imaging beads in assay buffer (20 mM Tris, 150 mM NaCl, 10% Glycerol, 0.25% CHAPS, 1 mM TCEP) prior to adding 30 microlitres to test ligands. Assay plates were incubated for one hour at room temperature before adding 10 microlitres tritiated 2-(4-(ethylsulfonyl)phenyl)-N-(4-(2-(methoxymethyl)phenyl)thiophen-2-yl)acetamide to test plates in assay buffer (final concentration, 25 nM). Test plates were incubated for 16 hours and read using a LEADseeker Multimodality imaging instrument. The raw data was analysed and IC50 and Ki values for the compounds were calculated using Genedata Screener software. Raw data was transformed to % effect using equation 1: Compound % effect=100*[(X−min)/(max−min)], where X represents the normalized value for the compound based on the Min (vehicle) and Max (reference compound) inhibition controls. The concentration of test ligand that inhibited radioligand binding by 50% (i.e., the IC50) was calculated by plotting the % effect versus test ligand concentration and fitting the data using the Genedata Screener Smart fit algorithm. Ki is calculated from the IC50 value using the equation Ki=IC50/1+[L]/Kd) where [L]=25 nmol/L and Kd=17 nmol/L
IC50 [1] [nM],IC50 [2] [nM],SMILES
50.1,12.6,"COC(=O)N1Cc2cc(S(C)(=O)=O)ccc2C1C(=O)Nc1ccc(C(C#N)(C(F)(F)F)C(F)(F)F)cc1 (centres unmarked) [Example 7, Methyl 1-{[4-(2-cyano-1,1,1,3,3,3-hexafluoropropan-2-yl)phenyl]carbamoyl}-5-(methylsulfonyl)-1,3-dihydro-2H-isoindole-2-carboxylate]"
39.8,6.31,"CCCNC(c1ccc(NC(=O)C2c3ccc(S(C)(=O)=O)cc3CN2C(C)=O)cc1)(C(F)(F)F)C(F)(F)F (centres unmarked) [Example 16, 2-Acetyl-N-{4-[1,1,1,3,3,3-hexafluoro-2-(propylamino)propan-2-yl]phenyl}-5-(methylsulfonyl)-2,3-dihydro-1H-isoindole-1-carboxamide]"
39.8,7.94,"COC(c1ccc(NC(=O)C2c3ccc(S(C)(=O)=O)cc3CN2C(C)=O)cc1)(C(F)(F)F)C(F)(F)F (centres unmarked) [Example 28, 2-Acetyl-N-[4-(1,1,1,3,3,3-hexafluoro-2-methoxypropan-2-yl)phenyl]-5-(methylsulfonyl)-2,3-dihydro-1H-isoindole-1-carboxamide]"
100,39.8,"CC(=O)N1Cc2cc(S(C)(=O)=O)ccc2C1C(=O)Nc1ccc(C(n2ccnn2)(C(F)(F)F)C(F)(F)F)cc1 (centres unmarked) [Example 29, 2-Acetyl-N-{4-[1,1,1,3,3,3-hexafluoro-2-(1H-1,2,3-triazol-1-yl)propan-2-yl]phenyl}-5-(methylsulfonyl)-2,3-dihydro-1H-isoindole-1-carboxamide]"
> 31600,15.8,"CC(=O)N1Cc2cc(S(C)(=O)=O)ccc2C1C(=O)Nc1ccc(C(CC(=O)OC(C)(C)C)(C(F)(F)F)C(F)(F)F)cc1 (centres unmarked) [Example 44, tert-Butyl 3-[4-({[2-acetyl-5-(methylsulfonyl)-2,3-dihydro-1H-isoindol-1-yl]carbonyl}amino)phenyl]-4,4,4-trifluoro-3-(trifluoromethyl)butanoate]"

# The remaining lines, values behind:
SMILES,IC50 [1] [nM],IC50 [2] [nM]
"COCC(=O)N1Cc2cc(S(C)(=O)=O)ccc2C1C(=O)Nc1ccc(C(C#N)(C(F)(F)F)C(F)(F)F)cc1 (centres unmarked) [Example 8, N-[4-(2-Cyano-1,1,1,3,3,3-hexafluoropropan-2-yl)phenyl]-2-(methoxyacetyl)-5-(methylsulfonyl)-2,3-dihydro-1H-isoindole-1-carboxamide]",50.1,12.6
"CC(=O)N1Cc2cc(S(C)(=O)=O)ccc2C1C(=O)Nc1ccc(C(CC(=O)N2CC(C)(F)C2)(C(F)(F)F)C(F)(F)F)cc1 (centres unmarked) [Example 39, 2-Acetyl-5-(methylsulfonyl)-N-{4-[1,1,1-trifluoro-4-(3-fluoro-3-methylazetidin-1-yl)-4-oxo-2-(trifluoromethyl)butan-2-yl]phenyl}-2,3-dihydro-1H-isoindole-1-carboxamide]",> 31600,398
"CC(=O)N1Cc2cc(S(C)(=O)=O)ccc2C1C(=O)Nc1ccc(C(N(C)C)(C(F)(F)F)C(F)(F)F)cc1 (centres unmarked) [Example 25, 2-Acetyl-N-{4-[2-(dimethylamino)-1,1,1,3,3,3-hexafluoropropan-2-yl]phenyl}-5-(methylsulfonyl)-2,3-dihydro-1H-isoindole-1-carboxamide]",39.8,6.31
"CNC(c1ccc(NC(=O)C2c3ccc(S(C)(=O)=O)cc3CN2C(C)=O)cc1)(C(F)(F)F)C(F)(F)F (centres unmarked) [Example 24, 2-Acetyl-N-{4-[1,1,1,3,3,3-hexafluoro-2-(methylamino)propan-2-yl]phenyl}-5-(methylsulfonyl)-2,3-dihydro-1H-isoindole-1-carboxamide]",50.1,31.6
"CS(=O)(=O)c1ccc2c(c1)CN(C(=O)CCN)C2C(=O)Nc1ccc(C(C#N)(C(F)(F)F)C(F)(F)F)cc1 (centres unmarked) [Example 11, 2-(3-Aminopropanoyl)-N-[4-[1-cyano-2,2,2-trifluoro-1-(trifluoromethyl)ethyl]phenyl]-5-methylsulfonyl-isoindoline-1-carboxamide]",158,25.1
